Source: patent US20140073761A1, “CONJUGATES CONTAINING HYDROPHILIC SPACER LINKERS” (priority 2007, published 2014)
Read-outs that look alike come from different tables or passages of the source. Marks after values point to notes of the source that are not given here. *1 amine or outer side, *2 acyl side, *3 side chain or, on linkers, in order; H or OH if unused. Where a SMILES comes first, the peptide text is derived from it. [ ]: non-standard residue; d: D form. The star is where a group is joined. X1 = CC[C@]1(O)C[C@H]2CN(CCc3c([nH]c4ccccc34)[C@@](C(=O)OC)(c3cc4c(cc3OC)N(C)[C@H]3[C@@](O)(C(=O)NNC(=O)OCCS*)[C@H](O)[C@]5(CC)C=CCN6CC[C@]43[C@@H]65)C2)C1; Nle(3R-OH,4S-OH,5R-OH,6-OH) = N[C@H](C(=O)O)[C@@H](O)[C@H](O)[C@H](O)CO; Pteroyl = Nc1nc2ncc(CNc3ccc(C(=O)*)cc3)nc2c(=O)[nH]1; γGlu = O=C(O)[C@H](CCC(=O)[*:2])N[*:1]

Tests used:
[1] = rat, in vivo
Text: Comparison of Bile Clearance (% ID) of unconjugated drug, drug conjugate lacking a hydrophilic spacer linker, and conjugates described herein.

[2] = system: folate receptor-positive KB cells; format: cell-based; conditions: excess folic acid
Method: Inhibition of Cellular DNA Synthesis. The compounds described herein were evaluated using an in vitro cytotoxicity assay that predicts the ability of the drug to inhibit the growth of folate receptor-positive KB cells. The compounds were comprised of folate linked to a respective chemotherapeutic drug, as prepared according to the protocols described herein. […] The cells were then rinsed once with fresh culture medium and incubated in fresh culture medium for 72 hours at 37° C. Cell viability was assessed using a ^3H-thymidine incorporation assay.
(§1) In Vitro Concentration-Dependent Cytotoxic Activity. Cells were heavily seeded in 24-well Falcon plates and allowed to form nearly confluent monolayers overnight. Thirty minutes prior to the addition of test article, spent medium was aspirated from all wells and replaced with fresh folate-free RPMI (FFRPMI). […] Treated cells were pulsed for 2 h at 37° C., rinsed 4 times with 0.5 mL of media, and then chased in 1 mL of fresh media up to 70 h. Spent media was aspirated from all wells and replaced with fresh media containing 5 μCi/mL ^3H-thymidine. Following a further 2 h 37° C. incubation, cells were washed 3 times with 0.5 mL of PBS and then treated with 0.5 mL of ice-cold 5% trichloroacetic acid per well. After 15 min, the trichloroacetic acid was aspirated and the cell material solubilized by the addition of 0.5 mL of 0.25 N sodium hydroxide for 15 min. Four hundred and fifty μL of each solubilized sample were transferred to scintillation vials containing 3 mL of Ecolume scintillation cocktail and then counted in a liquid scintillation counter. Final tabulated results were expressed as the percentage of ^3H-thymidine incorporation relative to untreated controls.
(§2) As shown in the figures herein, dose-dependent cytotoxicity was measurable, and in most cases, the IC50 values (concentration of drug conjugate required to reduce ^3H-thymidine incorporation into newly synthesized DNA by 50%) were in the low nanomolar range. […] The following table illustrated data for selected compounds against KB cells and against RAW264.7 cells

[3] = M109 tumors
Method: Toxicity as Measured by Weight Loss. The percentage weight change was determined in mice (5 mice/group) on selected days post-tumor inoculation (PTI), compared to controls, and graphed.

in vivo = experiment: in vivo; design: species or system mice; conditions: for MTD: mouse, in vivo, read-out: Single Dose MTDapp
[4] = Cell viability, XTT, 5 h pulse/72 h chase (FIG. 16); format: cell-based
20S proteosome = experiment: Inhibition of LPS stimulated proteosome activity in RAW 264.7 cells (FIG. 18); format: cell-based; conditions: 5 h pulse/24 h chase, LPS 100 ng/mL
RAW264.7 cells = format: cell-based; conditions: for RAW264.7 Cells Competable with xs folate: excess folic acid
Method: as §1, §2

[5] = mice, single dose, EC0234 dose limited by solubility

CC[C@]1(O)C[C@H]2CN(CCc3c([nH]c4ccccc34)[C@@](C(=O)OC)(c3cc4c(cc3OC)N(C)[C@H]3[C@@](O)(C(=O)NNC(=O)OCCSSC[C@H](NC(=O)CCOCCOCCOCCOCCOCCOCCOCCOCCOCCOCCOCCOCCNC(=O)CC[C@H](NC(=O)c5ccc(NCc6cnc7nc(N)nc(O)c7n6)cc5)C(=O)O)C(=O)O)[C@H](O)[C@]5(CC)C=CCN6CC[C@]43[C@@H]65)C2)C1 [EC0409]
Bile clearance (% ID) [1]: 7.9 % ID
KB Cells Competable with xs folate [2]: Yes

CC[C@]1(O)C[C@H]2CN(CCc3c([nH]c4ccccc34)[C@@](C(=O)OC)(c3cc4c(cc3OC)N(C)[C@H]3[C@@](O)(C(=O)NNC(=O)OCCSSC[C@H](NC(=O)[C@@H](NC(=O)[C@H](CC(=O)O)NC(=O)[C@@H](NC(=O)[C@H](CC(=O)O)NC(=O)[C@@H](NC(=O)[C@H](CC(=O)O)NC(=O)[C@@H](NC(=O)CC[C@H](NC(=O)c5ccc(NCc6cnc7nc(N)[nH]c(=O)c7n6)cc5)C(=O)O)[C@@H](O)[C@H](O)[C@H](O)CO)[C@@H](O)[C@H](O)[C@H](O)CO)[C@@H](O)[C@H](O)[C@H](O)CO)[C@@H](O)[C@H](O)[C@H](O)CO)C(=O)O)[C@H](O)[C@]5(CC)C=CCN6CC[C@]43[C@@H]65)C2)C1 [EC0434, Tetra-Saccharo-Tris-Asp-Folate Vinblastine Conjugate] ({Pteroyl-γGlu}-[Nle(3R-OH,4S-OH,5R-OH,6-OH)]D[Nle(3R-OH,4S-OH,5R-OH,6-OH)]D[Nle(3R-OH,4S-OH,5R-OH,6-OH)]D[Nle(3R-OH,4S-OH,5R-OH,6-OH)]C(X1)-OH)
percent of total dose in the bile (total DAVLBH biliary excretion) ([1]; iv): 2.8%
gross toxicity (percentage body weight change) ([3]; FIG. 6B, 7B, 8B, Balb/c mice, 2 μmol/kg TIW two weeks): no gross toxicity was observed

CC[C@]1(O)C[C@H]2CN(CCc3c([nH]c4ccccc34)[C@@](C(=O)OC)(c3cc4c(cc3OC)N(C)[C@H]3[C@@](O)(C(=O)NNC(=O)OCCSSC[C@H](NC(=O)[C@@H](NC(=O)CC[C@H](NC(=O)c5ccc(NCc6cnc7nc(N)[nH]c(=O)c7n6)cc5)C(=O)O)[C@@H](O)[C@H](O)[C@H](O)CO)C(=O)O)[C@H](O)[C@]5(CC)C=CCN6CC[C@]43[C@@H]65)C2)C1 [EC0234, Mono-Saccharo-Folate Vinblastine Conjugate]
gross toxicity (percentage body weight change) ([3]; FIG. 3B, TIW 3 μmol/kg, 3 wks): no gross toxicity was observed
MTD (in vivo; [5]): 12 µmol/kg

CC[C@]1(O)C[C@H]2CN(CCc3c([nH]c4ccccc34)[C@@](C(=O)OC)(c3cc4c(cc3OC)N(C)[C@H]3[C@@](O)(C(=O)NNC(=O)OCCSSC[C@H](NC(=O)[C@@H](NC(=O)[C@H](CC(=O)O)NC(=O)[C@@H](NC(=O)CC[C@H](NC(=O)c5ccc(NCc6cnc7nc(N)[nH]c(=O)c7n6)cc5)C(=O)O)[C@@H](O)[C@H](O)[C@H](O)CO)[C@@H](O)[C@H](O)[C@H](O)CO)C(=O)O)[C@H](O)[C@]5(CC)C=CCN6CC[C@]43[C@@H]65)C2)C1 [EC0246, Bis-Saccharo-Folate Vinblastine Conjugate]
gross toxicity (percentage body weight change) ([3]; FIG. 3B, TIW 3 μmol/kg, 3 wks): no gross toxicity was observed
mice died (in vivo; at 20 μmol/kg single dose): **⅓ mice died at 20 μmol/kg.
Single Dose MTDapp (in vivo; [5]): <20** μmol/kg

CC(C)C[C@H](NC(=O)[C@H](Cc1ccccc1)NC(=O)c1cnc(CSSC[C@H](NC(=O)[C@H](CCC(=O)NC[C@H](O)[C@@H](O)[C@H](O)[C@H](O)CO)NC(=O)[C@H](CCC(=O)O)NC(=O)[C@H](CSSCc2cnc(C(=O)N[C@@H](Cc3ccccc3)C(=O)N[C@@H](CC(C)C)B(O)O)cn2)NC(=O)[C@H](CCC(=O)NC[C@H](O)[C@@H](O)[C@H](O)[C@H](O)CO)NC(=O)[C@H](CCC(=O)O)NC(=O)[C@H](CCC(=O)NC[C@H](O)[C@@H](O)[C@H](O)[C@H](O)CO)NC(=O)CC[C@H](NC(=O)c2ccc(NCc3cnc4nc(N)[nH]c(=O)c4n3)cc2)C(=O)O)C(=O)O)cn1)B(O)O [EC0595]
IC50 [4]: 13 nM
IC50 (20S proteosome): ~30 nM
IC50 (RAW264.7 cells): 4 nM
RAW264.7 Cells Competable with xs folate (RAW264.7 cells): Yes

CC(=O)O[C@H]1C(=O)[C@@]2(C)[C@H]([C@H](OC(=O)c3ccccc3)[C@]3(O)C[C@H](OC(=O)[C@H](OC(=O)COc4ccc(C(=O)NNC(=O)OCCSSC[C@H](NC(=O)[C@H](CCC(=O)NC[C@H](O)[C@@H](O)[C@H](O)[C@H](O)CO)NC(=O)[C@H](CCC(=O)O)NC(=O)[C@H](CCC(=O)NC[C@H](O)[C@@H](O)[C@H](O)[C@H](O)CO)NC(=O)[C@H](CCC(=O)O)NC(=O)[C@H](CCC(=O)NC[C@H](O)[C@@H](O)[C@H](O)[C@H](O)CO)NC(=O)CC[C@H](NC(=O)c5ccc(NCc6cnc7nc(N)[nH]c(=O)c7n6)cc5)C(=O)O)C(=O)O)cc4)[C@@H](NC(=O)c4ccccc4)c4ccccc4)C(C)=C1C3(C)C)[C@]1(OC(C)=O)CO[C@@H]1C[C@@H]2O [EC0561]
KB Cells Competable with xs folate [2]: Yes

CCC(C)[C@H](NC(=O)[C@H]1CCCCN1C)C(=O)N(COC(=O)CC(C)C)[C@H](C[C@@H](OC(C)=O)c1nc(C(=O)N[C@@H](Cc2ccc(O)cc2)C[C@H](C)C(=O)NNC(=O)OCSSC[C@H](NC(=O)[C@H](CCC(=O)NC[C@H](O)[C@@H](O)[C@H](O)[C@H](O)CO)NC(=O)[C@H](CCC(=O)O)NC(=O)[C@H](CCC(=O)NC[C@H](O)[C@@H](O)[C@H](O)[C@H](O)CO)NC(=O)[C@H](CCC(=O)O)NC(=O)[C@H](CCC(=O)NC[C@H](O)[C@@H](O)[C@H](O)[C@H](O)CO)NC(=O)CC[C@H](NC(=O)c2ccc(NCc3cnc4nc(N)[nH]c(=O)c4n3)cc2)C(=O)O)C(=O)O)cs1)C(C)C (stereo partly shown) [EC0543]
KB Cells Competable with xs folate [2]: Yes

CC(C)C[C@H](NC(=O)[C@H](Cc1ccccc1)NC(=O)c1cnc(CSSC[C@H](NC(=O)[C@H](CCC(=O)NC[C@H](O)[C@@H](O)[C@H](O)[C@H](O)CO)NC(=O)[C@H](CCC(=O)O)NC(=O)[C@H](CCC(=O)NC[C@H](O)[C@@H](O)[C@H](O)[C@H](O)CO)NC(=O)[C@H](CCC(=O)O)NC(=O)[C@H](CCC(=O)NC[C@H](O)[C@@H](O)[C@H](O)[C@H](O)CO)NC(=O)CC[C@H](NC(=O)c2ccc(NCc3cnc4nc(N)[nH]c(=O)c4n3)cc2)C(=O)O)C(=O)O)cn1)B(O)O [EC0525]
IC50 [4]: 46 nM
IC50 (20S proteosome): ~30 nM
RAW264.7 Cells Competable with xs folate (RAW264.7 cells): Yes

CC[C@]1(O)C[C@H]2CN(CCc3c([nH]c4ccccc34)[C@@](C(=O)OC)(c3cc4c(cc3OC)N(C)[C@H]3[C@@](O)(C(=O)NNC(=O)OCCSSC[C@H](NC(=O)[C@@H](NC(=O)[C@@H](NC(=O)[C@H](CC(=O)O)NC(=O)[C@@H](NC(=O)CC[C@H](NC(=O)c5ccc(NCc6cnc7nc(N)[nH]c(=O)c7n6)cc5)C(=O)O)[C@@H](O)[C@H](O)[C@H](O)CO)[C@@H](O)[C@H](O)[C@H](O)CO)[C@@H](O)[C@H](O)[C@H](O)CO)C(=O)O)[C@H](O)[C@]5(CC)C=CCN6CC[C@]43[C@@H]65)C2)C1 [EC0258, Tris-Saccharo-Asp-Folate Vinblastine Conjugate]
Bile clearance (% ID) [1]: 3.2 % ID
KB Cells Competable with xs folate [2]: Yes

CC[C@]1(O)C[C@H]2CN(CCc3c([nH]c4ccccc34)[C@@](C(=O)OC)(c3cc4c(cc3OC)N(C)[C@H]3[C@@](O)(C(=O)NNC(=O)OCCSSC[C@H](NC(=O)[C@@H](NC(=O)[C@H](CC(=O)O)NC(=O)[C@@H](NC(=O)[C@H](CC(=O)O)NC(=O)[C@@H](NC(=O)CC[C@H](NC(=O)c5ccc(NCc6cnc7nc(N)[nH]c(=O)c7n6)cc5)C(=O)O)[C@@H](O)[C@H](O)[C@H](O)CO)[C@@H](O)[C@H](O)[C@H](O)CO)[C@@H](O)[C@H](O)[C@H](O)CO)C(=O)O)[C@H](O)[C@]5(CC)C=CCN6CC[C@]43[C@@H]65)C2)C1 [EC0263, Tris-Saccharo-Bis-Asp-Folate Vinblastine Conjugate]
MTD (in vivo; [5]): > 20 µmol/kg

COc1ccc(C[C@H]2NC(=O)/C=C/C[C@@H]([C@H](C)[C@@H](OC(=O)OCCSSC[C@H](NC(=O)[C@@H](NC(=O)[C@H](CC(=O)O)NC(=O)[C@@H](NC(=O)[C@H](CC(=O)O)NC(=O)[C@@H](NC(=O)CC[C@H](NC(=O)c3ccc(NCc4cnc5nc(N)[nH]c(=O)c5n4)cc3)C(=O)O)[C@@H](O)[C@H](O)[C@H](O)CO)[C@@H](O)[C@H](O)[C@H](O)CO)[C@@H](O)[C@H](O)[C@H](O)CO)C(=O)O)[C@@H](Cl)c3ccccc3)OC(=O)[C@H](CC(C)C)OC(=O)C(C)(C)CNC2=O)cc1Cl [EC0262]
KB Cells Competable with xs folate [2]: Yes
